The values below are quoted from earlier work in patent US20130183261A1, “METHOD AND COMPOSITION FOR DELIVERING ACTIVE INGREDIENT INTO AIR, AND USE THEREOF” (priority 2010, published 2013).

SMILES strings stand for the structures.

The conditions of the series: at 25° C.; neat solvent.

Turning to `CCCOC(C)COC(C)CO` (stereo not shown) [DPnP, dipropylene glycol n-propyl ether], the Viscosity was 11.4 mPa·s.
